# Residue numbers refer to the chain shown, from its start. Where “and” joins values, the source holds several entries; their conditions need not be identical. Equal entries are not always repeated.
# What was measured:
# PfCRT variant F268A = molecular target: T1, PfCRT variant F268A (Plasmodium falciparum, UniProt Q9N623, A220S/F268A/I356T/K76T/M74I/N326S/N75E/Q271E/R371I); experiment: CQ uptake assay, oocytes expressing F268A; assay type: cell-based
# T1 sequence (Q9N623 1-424 M74I/N75E/K76T/A220S/F268A/Q271E/N326S/I356T/R371I): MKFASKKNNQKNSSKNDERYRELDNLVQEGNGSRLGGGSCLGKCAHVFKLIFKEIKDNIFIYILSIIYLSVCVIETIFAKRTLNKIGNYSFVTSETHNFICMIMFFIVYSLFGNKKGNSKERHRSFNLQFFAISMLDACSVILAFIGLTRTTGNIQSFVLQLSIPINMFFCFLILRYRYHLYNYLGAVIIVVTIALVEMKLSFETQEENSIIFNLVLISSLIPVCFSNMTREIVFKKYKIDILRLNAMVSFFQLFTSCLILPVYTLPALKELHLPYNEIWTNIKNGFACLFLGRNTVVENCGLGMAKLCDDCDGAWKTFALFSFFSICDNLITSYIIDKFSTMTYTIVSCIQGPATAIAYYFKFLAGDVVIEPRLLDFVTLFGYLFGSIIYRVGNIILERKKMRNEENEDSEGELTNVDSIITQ
# Description: (§1) Site-directed mutagenesis of PfCRT^Dd2 was performed as described using the megaprimer method with overlap extension[21],[54]. The primer pairs used are listed in Supplementary Table 6. Please note that a codon-optimized and oocyte-adapted version of PfCRT^Dd2 was used[22] (Supplementary Fig. 16). The resulting DNA fragment was cloned into the SP64T expression vector and verified by sequencing.
# (§2) Oocytes were obtained as described previously. Briefly, adult (>2 years old) female X. laevis frogs (NASCO) were anesthetized in a cooled solution of ethyl 3-amino benzoate methanesulfonate (0.1%, w/v), followed by a surgical removal of parts of the ovary. The ovary lobes were carefully dissected and small pieces of oocytes were incubated in Ca^2+-free ND96 buffer (96 mM NaCl, 2 mM KCl, 1 mM MgCl2 buffered with 5 mM HEPES/NaOH, pH 7.5) supplemented with collagenase D (0.1%, w/v; Roche), BSA (0.5%, w/v), and 9 mm Na2HPO4 at 18 °C for 14-16 h while gentle shaking. After incubation, the oocytes were carefully washed several times with ND96 buffer (96 mM NaCl, 2 mM KCl, 1.8 mM CaCl2, 1 mM MgCl2 buffered with 5 mM HEPES/NaOH, pH 7.5) supplemented with 100 mg l^−1 gentamycin). Defolliculated and healthy-looking stage V-VI oocytes were manually selected for RNA microinjection. The RNA was generated as following: The codon-optimized sequences of PfCRT variants were cloned into the pSP64T expression vector. After vector linearization using the restriction endonucleases BamHI or SalI (New England Biolabs), transcription was performed using the in vitro SP6 mMessage mMachine Kit (Ambion)[34]. The obtained RNA was kept at −80 °C and diluted with nuclease-free water to a concentration of 0.6 μg μl^−1. Precision-bore glass capillary tubes (3.5-inch glass capillaries; Drummond Scientific Co.) were pulled on a vertical puller (P-87 Flaming/Brown micropipette puller, Sutter Instrument Co.), graduated, and placed on a microinjector (Nanoject II Auto-Nanoliter Injector, Drummond Scientific Co.). 50 nl of nuclease-free water alone (control oocytes) or 50 nl of 0.6 μg μl^−1 RNA were injected under stereomicroscopic control. Injected oocytes were incubated for 46–72 h at 18 °C with twice-daily buffer changes before usage in experiments.
# Drug uptake assays were performed as described previously[21],[22],[24],[34]. […] The direction of radio-labeled drug transport is here from the mostly acidic extracellular solution (pH 4.5 or 6.0, as indicated) into the oocyte cytosol (pH ∼ 7.2), which corresponds to the efflux of drug from the acidic digestive vacuole (pH 5.2) into the parasite cytoplasm (pH 7.2). The topology of PfCRT in the oolemma is such that both the N- and C-terminus face the extracellular milieu[3],[22]. In the parasite, the N- and C-terminus face the lumen of the digestive vacuole. CQ uptake kinetics were performed by incubating oocytes in ND96 buffer adjusted to a pH of 4.5, 5.0, 5.5, or 6.0 and supplemented with 50 nM [^3H]CQ and one of 7 different CQ concentrations (10 µM, 50 µM, 100 µM, 200 µM, 300 µM, 400 µM, 500 µM CQ). The reaction was stopped at the 60 min time point, which is in the linear uptake range[22],[34] (Supplementary Fig. 17). […] The radioactivity of each sample was measured using a liquid scintillation analyzer Tri-Carb 4910 TR (PerkinElmer). Oocytes that were injected with water instead of RNA were analyzed in parallel, representing the uptake of a drug by diffusion and/or endogenous permeation pathways. […]
# [1] = molecular target: T2, PfCRT variant CD3 (F3A, E29A, F52A, Y238A, F340A, E399A, E407A) (Plasmodium falciparum, UniProt Q9N623, A220S/E29A/E399A/E407A/F340A/F3A/F52A/I356T/K76T/M74I/N326S/N75E/Q271E/R371I/Y238A); experiment: CQ uptake assay, oocytes expressing CD3; assay type: cell-based
# T2 sequence (Q9N623 1-424 F3A/E29A/F52A/M74I/N75E/K76T/A220S/Y238A/Q271E/N326S/F340A/I356T/R371I/E399A/E407A): T1 sequence (Q9N623 1-424 M74I/N75E/K76T/A220S/F268A/Q271E/N326S/I356T/R371I) with F3A, E29A, F52A, Y238A, A268F, F340A, E399A, E407A
# Description: as §1, §2
# (§3) Drug uptake assays were performed as described previously[21],[22],[24],[34]. […] The direction of radio-labeled drug transport is here from the mostly acidic extracellular solution (pH 4.5 or 6.0, as indicated) into the oocyte cytosol (pH ∼ 7.2), which corresponds to the efflux of drug from the acidic digestive vacuole (pH 5.2) into the parasite cytoplasm (pH 7.2). The topology of PfCRT in the oolemma is such that both the N- and C-terminus face the extracellular milieu[3],[22]. In the parasite, the N- and C-terminus face the lumen of the digestive vacuole. CQ uptake kinetics were performed by incubating oocytes in ND96 buffer adjusted to a pH of 4.5, 5.0, 5.5, or 6.0 and supplemented with 50 nM [^3H]CQ and one of 7 different CQ concentrations (10 µM, 50 µM, 100 µM, 200 µM, 300 µM, 400 µM, 500 µM CQ). The reaction was stopped at the 60 min time point, which is in the linear uptake range[22],[34] (Supplementary Fig. 17). For determination of the amount of drug uptake for each oocyte, the reaction medium was removed and the oocytes were washed three times with 2 ml of ice-cold ND96 buffer. Each oocyte was individually transferred to a scintillation vial containing 5% sodium dodecyl sulfate (200 μl) for lysis. The radioactivity of each sample was measured using a liquid scintillation analyzer Tri-Carb 4910 TR (PerkinElmer). Oocytes that were injected with water instead of RNA were analyzed in parallel, representing the uptake of a drug by diffusion and/or endogenous permeation pathways. The resulting value represents the “background“ level of drug accumulation in oocytes (in-depth discussion in[22]). […]
# PfCRT variant E207R = experiment: CQ uptake assay, oocytes expressing E207R; assay type: cell-based, Plasmodium falciparum
# Description: as §1, §2, §3
# [2] = F268A, 50 µM CQ, 1 h, mean ± SEM
# [3] = pH 4.5, single replicates, Fig 1d left
# [4] = pH 6.0, single replicates, Fig 1d left
# [5] = E207R, 50 µM CQ, 1 h, mean ± SEM
smiles,measurement,setting,value
"CCN(CC)CCCC(C)Nc1ccnc2cc(Cl)ccc12 (centres unmarked) [CQ, chloroquine]",Activity at pH 4.5,PfCRT variant F268A; [2],1.06 ± 0.19 pmol h-1 oocyte-1
same,Activity at pH 6.0,PfCRT variant F268A; [2],2.93 ± 0.28 pmol h-1 oocyte-1
same,R-value,"PfCRT variant F268A; F268A, CQ transport at pH 4.5 / pH 6.0",0.40 ± 0.10
same,F268A transport activity pH 4.5,PfCRT variant F268A; [3],0.75 pmol oocyte-1 h-1 and 1.37 pmol oocyte-1 h-1 and 0.63 pmol oocyte-1 h-1 and 1.50 pmol oocyte-1 h-1
same,F268A transport activity pH 6.0,PfCRT variant F268A; [4],3.49 pmol oocyte-1 h-1 and 2.31 pmol oocyte-1 h-1 and 3.48 pmol oocyte-1 h-1 and 2.45 pmol oocyte-1 h-1
same,Activity at pH 4.5,"[1]; CD3, 50 µM CQ, 1 h, mean ± SEM",1.78 ± 0.46 pmol h-1 oocyte-1
same,Activity at pH 6.0,"[1]; CD3, 50 µM CQ, 1 h, mean ± SEM",2.73 ± 0.57 pmol h-1 oocyte-1
same,R-value,"[1]; CD3, CQ transport at pH 4.5 / pH 6.0",0.62 ± 0.06
same,CD3 transport activity pH 4.5,[1]; [3],0.66 pmol oocyte-1 h-1 and 2.21 pmol oocyte-1 h-1 and 2.46 pmol oocyte-1 h-1
same,CD3 R-value,"[1]; pH 4.5 vs pH 6.0, Fig 1d left",0.47 and 0.72 and 0.65
same,CD3 transport activity pH 6.0,[1]; [4],1.39 pmol oocyte-1 h-1 and 3.05 pmol oocyte-1 h-1 and 3.76 pmol oocyte-1 h-1
same,Activity at pH 4.5,PfCRT variant E207R; [5],2.23 ± 0.16 pmol h-1 oocyte-1
same,Activity at pH 6.0,PfCRT variant E207R; [5],2.69 ± 0.23 pmol h-1 oocyte-1
same,R-value,"PfCRT variant E207R; E207R, CQ transport at pH 4.5 / pH 6.0",0.84 ± 0.04
same,E207R transport activity pH 4.5,"PfCRT variant E207R; pH 4.5, individual replicates, Fig 6b",2.49 pmol oocyte-1 h-1 and 2.35 pmol oocyte-1 h-1 and 1.85 pmol oocyte-1 h-1
same,E207R transport activity pH 6.0,"PfCRT variant E207R; pH 6.0, individual replicates, Fig 6b",3.24 pmol oocyte-1 h-1 and 2.53 pmol oocyte-1 h-1 and 2.29 pmol oocyte-1 h-1
same,E207RR-value,PfCRT variant E207R; ratio of activity pH 4.5 / pH 6.0,0.77 and 0.93 and 0.81
